Reference: PubChem BioAssay (NCI)
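48-hour exposure; five concentrations; linearly interpolated endpoints. Abbreviation: GI50, concentration required for 50% inhibition of growth. TGI is the concentration that stops growth completely.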

How the values were obtained:
Assay in all cases: NCI anticancer screen, dose series, 48 h
A549 NSCLC = system: A549 NSCLC
CAKI-1 renal = system: CAKI-1 renal
COLO 205 colon = system: COLO 205 colon
HL-60(TB) leukemia = system: HL-60(TB) leukemia
K-562 leukemia = system: K-562 leukemia
PC-3 prostate = system: PC-3 prostate
SK-MEL-28 melanoma = system: SK-MEL-28 melanoma
SK-MEL-5 melanoma = system: SK-MEL-5 melanoma
TK-10 renal = system: TK-10 renal
SR leukemia = system: SR leukemia

| SMILES | GI50 (A549 NSCLC) | TGI (A549 NSCLC) | GI50 (CAKI-1 renal) | TGI (CAKI-1 renal) | GI50 (COLO 205 colon) | TGI (COLO 205 colon) | GI50 (HL-60(TB) leukemia) | TGI (HL-60(TB) leukemia) | GI50 (K-562 leukemia) | TGI (K-562 leukemia) | GI50 (PC-3 prostate) | TGI (PC-3 prostate) | GI50 (SK-MEL-28 melanoma) | TGI (SK-MEL-28 melanoma) | GI50 (SK-MEL-5 melanoma) | TGI (SK-MEL-5 melanoma) | GI50 (TK-10 renal) | TGI (TK-10 renal) | TGI (SR leukemia) |
| --- | --- | --- | --- | --- | --- | --- | --- | --- | --- | --- | --- | --- | --- | --- | --- | --- | --- | --- | --- |
| O=C1NC(=O)C(c2ccccc2Cl)=C1Nc1cc(Cl)c(O)c(Cl)c1 | > 25 µM | > 25 µM | > 21.5 µM | > 25 µM | > 18.1 µM | > 25 µM | 9.75 µM | > 25 µM | 12.3 µM | > 25 µM | > 23 µM | > 25 µM | > 14.6 µM | > 25 µM | 11.7 µM | > 25 µM | > 25 µM | > 25 µM | – |
| O=C(O)Cc1cc(=O)[nH]c2c1/C(=N/O)CCC2 | – | > 100 µM | – | – | – | – | – | > 100 µM | – | > 100 µM | – | – | – | > 100 µM | – | > 100 µM | – | > 100 µM | > 100 µM |
| O=C(Nc1ccc(Cl)cc1Cl)C1C(=O)C(=O)N(c2ccc(Cl)cc2Cl)C1=O (configuration not stated) | – | > 100 µM | – | > 100 µM | – | – | – | > 100 µM | – | – | – | – | – | > 100 µM | – | > 100 µM | – | > 100 µM | – |
| CC(=O)CC(N)=O | – | > 100 µM | – | > 100 µM | – | > 100 µM | – | > 100 µM | – | > 100 µM | – | – | – | > 100 µM | – | > 100 µM | – | > 100 µM | > 100 µM |
| COc1ccc(NC(=O)CC/C(CC(=O)C(C)(C)C)=N\NC(=O)C(=O)NN)cc1 | – | > 100 µM | – | > 100 µM | – | > 100 µM | – | > 100 µM | – | > 100 µM | – | – | – | > 100 µM | – | > 100 µM | – | > 100 µM | > 100 µM |
| C#CC1(OC(C)=O)CCC2C3CC=C4C=C(OC(C)=O)CCC4(C)C3CCC21C (configuration not stated) | – | > 100 µM | – | 83.2 µM | – | 58.5 µM | – | > 100 µM | – | 83.2 µM | – | – | – | 53.6 µM | – | 34.1 µM | – | 51.6 µM | 35 µM |
| C=C(C#N)C1OCC2OC(C)(C)OC21 (configuration not stated) | – | > 100 µM | – | 49.1 µM | – | 30.3 µM | – | 43 µM | – | 72 µM | – | – | – | 43.2 µM | – | 34 µM | – | 58.5 µM | – |
| CCOC(=O)/C(=C\c1ccc(N(CCC#N)CCC#N)cc1)NC(=O)c1cc([N+](=O)[O-])ccc1Cl | – | > 100 µM | – | > 100 µM | – | > 100 µM | – | > 100 µM | – | > 100 µM | – | – | – | > 100 µM | – | > 100 µM | – | > 100 µM | – |
| COc1ccc(/C(=N\NC(=O)C(=O)NN)C(c2ccc(OC)cc2)C2(O)C(=O)Nc3ccccc32)cc1 (configuration not stated) | – | > 100 µM | – | > 100 µM | – | > 100 µM | – | – | – | > 100 µM | – | – | – | > 100 µM | – | > 100 µM | – | > 100 µM | > 100 µM |
| COC(=O)C1=C(O)c2cc(-c3ccccc3)c(-c3ccccc3)c(C#N)c2NC(=O)C1 | – | 54.4 µM | – | 85.8 µM | – | > 100 µM | – | – | – | > 100 µM | – | – | – | > 100 µM | – | – | – | – | > 100 µM |
| Cc1cccc(C)c1CO | – | > 100 µM | – | > 100 µM | – | > 100 µM | – | > 100 µM | – | > 100 µM | – | – | – | – | – | – | – | – | > 100 µM |
| COc1ccc(/C(COc2ccc3c(=O)c(-c4ccccc4)coc3c2)=N\O)cc1 | 14.8 µM | > 83.6 µM | 1.46 µM | 7.47 µM | 9.66 µM | > 36.3 µM | 0.119 µM | 2.2 µM | 0.0674 µM | > 100 µM | 6.53 µM | 58.7 µM | 10.2 µM | > 90.9 µM | 0.394 µM | 4.74 µM | 0.988 µM | 9.22 µM | – |
| O=C(O)NC(c1ccccc1)C(NC(=O)c1ccccc1)c1ccccc1 (configuration not stated) | – | > 100 µM | – | > 100 µM | – | > 100 µM | – | – | – | > 100 µM | – | – | – | > 100 µM | – | – | – | > 100 µM | > 100 µM |
| O=C1[C@H]2ON(c3ccccc3)C(c3ccccc3)[C@H]2C(=O)N1c1ccc(Cc2ccc(N3C(=O)[C@@H]4ON(c5ccccc5)C(c5ccccc5)[C@@H]4C3=O)cc2)cc1 (some centres not stated) | – | > 100 µM | – | > 100 µM | – | > 100 µM | – | > 100 µM | – | > 100 µM | – | – | – | > 100 µM | – | > 100 µM | – | – | – |
| C#CCOCn1cnc2c(Sc3c([N+](=O)[O-])ncn3C)ncnc21 | – | > 100 µM | – | > 100 µM | – | > 100 µM | – | > 100 µM | – | > 100 µM | – | – | – | > 100 µM | – | > 100 µM | – | > 100 µM | – |
| CC(=O)[CH-]C(=O)c1ccccc1.CC(=O)[CH-]C(=O)c1ccccc1.CC(C)CCCC(C)[C@H]1CCC2[C@@H]3CC=C4C[C@@H]([O-])CC[C@]4(C)C3CC[C@@]21C.CC(C)CCCC(C)[C@H]1CCC2[C@@H]3CC=C4C[C@@H]([O-])CC[C@]4(C)C3CC[C@@]21C.[Ti+4] (some centres not stated) | – | – | > 100 µM | > 100 µM | > 100 µM | > 100 µM | – | – | > 100 µM | > 100 µM | – | – | > 100 µM | > 100 µM | > 100 µM | > 100 µM | > 100 µM | > 100 µM | – |
| CC(C)(C)CC(C)(C)c1cc2c(O)c(c1)Cc1cc(C(C)(C)CC(C)(C)C)cc(c1O)Cc1cc(C(C)(C)CC(C)(C)C)cc(c1O)Cc1cc(C(C)(C)CC(C)(C)C)cc(c1O)Cc1cc(C(C)(C)CC(C)(C)C)cc(c1O)C2 | – | > 100 µM | – | – | – | > 100 µM | – | > 100 µM | – | > 100 µM | – | – | – | > 100 µM | – | > 100 µM | – | > 100 µM | – |
| O=C1C=CC(=O)C12CCc1ccccc12 | – | > 100 µM | – | > 31.6 µM | – | > 100 µM | – | > 60.6 µM | – | > 85.1 µM | – | – | – | > 100 µM | – | > 100 µM | – | > 100 µM | – |
| O=C1c2ccccc2-c2oc(=O)c3ccccc3c21 | – | – | – | > 100 µM | – | > 100 µM | – | > 100 µM | – | – | – | > 100 µM | – | > 100 µM | – | > 100 µM | – | > 100 µM | – |
| CN1CC(=O)N(C)c2ncn(Cc3ccccc3)c2C1=O | – | > 100 µM | – | – | – | > 100 µM | – | > 100 µM | – | > 100 µM | – | – | – | > 100 µM | – | > 100 µM | – | > 100 µM | > 100 µM |
| CN(C)CCNC(=O)c1cccc2nc3cc(Cl)ccc3nc12 | – | > 26.7 µM | – | > 23.5 µM | – | – | – | 13.9 µM | – | 4.14 µM | – | – | – | 8.27 µM | – | > 33.6 µM | – | 15 µM | > 100 µM |
| CC(=O)OC1CCn2nnc(CO)c21 (configuration not stated) | – | > 100 µM | – | > 100 µM | – | > 100 µM | – | – | – | > 100 µM | – | – | – | > 100 µM | – | > 100 µM | – | > 100 µM | > 100 µM |
